Measurements reported in patent US20100212031A1, “Method for improving efficiencies in livestock production” (priority 2002, published 2010).
Where “and” joins values, the source holds several entries; their conditions need not be identical. Equal entries are not always repeated. Marks after values point to notes of the source that are not given here.

How the values were obtained:
[1] = Test 4 / Group 3 feedlot study: backfat by serial ultrasound, steers by leptin (ob) genotype and drug status; format: in vivo, cattle (steers of mixed breed); settings: Drug group; for Backfat, mm d 1: 1st measure (1 days on feed); for Backfat, mm d 1 / Backfat, mm d 2 / Backfat, mm d 3: before drug; for Backfat, mm d 2: 2nd measure (60 days on feed); for Backfat, mm d 3: 3rd measure (104 days on feed); for Backfat, mm d 4: 4th measure (129 days on feed), after drug; for d to 10 mm (days needed to reach target backfat) / d to 12 mm (days needed to reach target backfat) / d to 14 mm (days needed to reach target backfat): from fitted model; for Rate (k, rate of backfat; fitted nonlinear parameter): model Y = 3.88e^kt, animal as experimental unit
Description: (§1) In test 4, 4172 hd of animals randomized to treatment and pen were housed in 48 pens, such that a study was conducted to assess the effect of ob genotype on fat growth, body weight growth, and carcass parameters; as well as any potential interaction with the beta andrenergic agonist Zilpaterol. […] 7.89 mm in the CT animals, and 7.63 mm in CC animals; with an overall statistical genotype effect of P=0.01. […] 494.6 lbs for CT animals, and 479.5 lbs for the CC animals; with an overall statistical genotype effect of P<0.01. Also importantly, the rate of fat change over time depended on ob genotype (Table 2).
(§2) Three groups of cattle were used to evaluate the effect of leptin genotype on back fat measurements in beef cattle. Originally two groups of cattle were fed and managed with the objective of evaluating the effect of a nutritional treatment on backfat measures and were randomly assigned to dietary treatment. The third experiment was fed and managed with the objective to evaluate 1) the effect the ob gene genotype on carcass parameters, 2) the effect of ob genotype on fat growth in the live animal, and 3) any potential interaction between the beta andrenergic agonist Zilpaterol Hydrochloride and ob genotype. The original experimental design for group 1 & 2 was a randomized complete block design (RCBD) with steers being randomly assigned to block, or experimental pen, dietary treatment was included in the final statistical model detailed below. […] Group 1 was composed of 319 steers and was of mixed breed, and of either European or British descent without any representation of Bos indicus bloodlines. The breeds represented in Group 1 were Hereford, Angus, Charolais, Simmental, and Limousin. The second group included 157 Charolais cross steers. All the cattle entered the finishing period when body weight was approximately 385 kg. Group 3 was composed of 4172 steers of mixed breed, and all cattle within a block were slaughtered on a single day.
Backfat was measured after 1, 55 and 139 days on feed for Group 1, 69, 111, and 120 days on feed for Group 2, and 1, 60, 104, and 129 days on feed for Group 3 using an Aloka 500V diagnostic ultrasound unit equipped with a 17.2 cm, 3.5 MHz linear array transducer (Overseas Monitor Corporation, Ltd., Richmond, B.C.) following the procedure described by Perkins et al., (1992). Internal calipers of the ultrasounds unit were used to measure back fat. Ultrasound images were recorded on a VHS tale (Panasonic AG-5200; Matsushita Electric of Canada, Mississauga, ON).
Backfat was analyzed with repeated measurements at 1, 55 and 139 days on feed for Group 1, 69, 111, and 120 days on feed for Group 2, and 1, 60, 104, and 129 days on feed for Group 3 using the MIXED procedure of SAS (Wang and Goodewardene, 2004). The following model was used: […]=μ+ρi+αj+λκ+βl+(αβ)jl+(λβ)kl+eijkl. Where Yijkl is the observation for the jth treatment ration or drug status within the ith block at the kth measurement, μ is the overall mean, ρi is the fixed effect of the ith block, aj is the fixed effect of the jth treatment ration, λk is the fixed effect of the kth measurement, βl is the fixed effect for leptin genotype (GENO) and eijkl, is the normally identical and independently distributed error term. The interaction between leptin genotype and diet, (αβ)jl, and time of measurement (λβ)kl, was also tested. A heterogeneous autoregressive-one covariance structure was utilized in analysis of backfat. Least square means and standard errors for body weight and back fat were determined using the ESTIMATE statement in PROC MIXED. The SLICE option was used to estimate least square means of GENO on days of measurements with the DIFF option being used to detect differences. Significance for the main effect of GENO and pairwise comparisons was declared at P<0.05 and trends are noted P<0.10. […]

[2] = Test 4 / Group 3 feedlot study: body weight growth of steers by leptin (ob) genotype and drug status; format: in vivo, cattle (steers of mixed breed); settings: Drug group; for BW, lbs d 1: 1st measure; for BW, lbs d 1 / BW, lbs d 2 / BW, lbs d 3: before drug; for BW, lbs d 2: 2nd measure; for BW, lbs d 3: 3rd measure; for BW, lbs d 4: 4th measure, after drug
Description: as §1, §2
Backfat was analyzed with repeated measurements at 1, 55 and 139 days on feed for Group 1, 69, 111, and 120 days on feed for Group 2, and 1, 60, 104, and 129 days on feed for Group 3 using the MIXED procedure of SAS (Wang and Goodewardene, 2004). The following model was used: […]=μ+ρi+αj+λκ+βl+(αβ)jl+(λβ)kl+eijkl. Where Yijkl is the observation for the jth treatment ration or drug status within the ith block at the kth measurement, μ is the overall mean, ρi is the fixed effect of the ith block, aj is the fixed effect of the jth treatment ration, λk is the fixed effect of the kth measurement, βl is the fixed effect for leptin genotype (GENO) and eijkl, is the normally identical and independently distributed error term. The interaction between leptin genotype and diet, (αβ)jl, and time of measurement (λβ)kl, was also tested. A heterogeneous autoregressive-one covariance structure was utilized in analysis of backfat. Least square means and standard errors for body weight and back fat were determined using the ESTIMATE statement in PROC MIXED. The SLICE option was used to estimate least square means of GENO on days of measurements with the DIFF option being used to detect differences. Significance for the main effect of GENO and pairwise comparisons was declared at P<0.05 and trends are noted P<0.10. […] Within each group of cattle retrospective exponential models were fitted to the longitudinal measurements of back fat as described by Brethour (2000). The NLIN procedure of SAS was used to fit the nonlinear exponential function Y=Ae^(kt), where Y=projected backfat, A=the initial backfat, k=rate of increase, and t=time in days.
In test 4, 4172 hd of animals randomized to treatment and pen were housed in 48 pens, such that a study was conducted to assess the effect of ob genotype on fat growth, body weight growth, and carcass parameters; as well as any potential interaction with the beta andrenergic agonist Zilpaterol. […]

[3] = administration of exogenous leptin; mice, chickens, pigs and sheep; cited from earlier work

## CC(C)N[C@@H]1CCn2c(=O)[nH]c3cccc(c32)[C@H]1O.Cl (racemic) [Drug, Zilpaterol Hydrochloride]
[1]; CC Genotype
  AFG, mm/d (Average Daily fat gain in millimeters): 0.051 mm/d
  Fat CH, mm: Backfat change before and after drug, difference between 3rd and 4th measure: 1.24 mm
  Fat CH, mm: Backfat change, difference between 1st and 4th measure: 7.30 mm
  Rate, 10-12: 0.0071
  Backfat, mm d 1: 3.46 mm
  Backfat, mm d 2: 7.44 mm
  Backfat, mm d 3: 9.60 mm
  Backfat, mm d 4: 10.7 mm
  d to 10 mm (days needed to reach target backfat): 144 days
  d to 12 mm (days needed to reach target backfat): 170 days
  d to 14 mm (days needed to reach target backfat): 192 days
  Rate (k, rate of backfat; fitted nonlinear parameter): 0.0069^a
[1]; CT Genotype
  AFG, mm/d (Average Daily fat gain in millimeters): 0.053 mm/d
  Fat CH, mm: Backfat change before and after drug, difference between 3rd and 4th measure: 1.35 mm
  Fat CH, mm: Backfat change, difference between 1st and 4th measure: 7.56 mm
  Rate, 10-12: 0.0072
  Backfat, mm d 1: 3.50 mm
  Backfat, mm d 2: 7.74 mm
  Backfat, mm d 3: 9.77 mm
  Backfat, mm d 4: 11.0 mm
  d to 10 mm (days needed to reach target backfat): 135 days
  d to 12 mm (days needed to reach target backfat): 160 days
  d to 14 mm (days needed to reach target backfat): 182 days
[1]; CT Genotype, Hydrochloride
  Rate (k, rate of backfat; fitted nonlinear parameter): 0.0077^1 and 0.0071^1
[1]; TT Genotype
  AFG, mm/d (Average Daily fat gain in millimeters): 0.054 mm/d
  Fat CH, mm: Backfat change before and after drug, difference between 3rd and 4th measure: 1.17 mm
  Fat CH, mm: Backfat change, difference between 1st and 4th measure: 7.71 mm
  Rate, 10-12: 0.0073
  Backfat, mm d 1: 3.62 mm
  Backfat, mm d 2: 7.98 mm
  Backfat, mm d 3: 10.26 mm
  Backfat, mm d 4: 11.3 mm
  d to 10 mm (days needed to reach target backfat): 126 days
  d to 12 mm (days needed to reach target backfat): 151 days
  d to 14 mm (days needed to reach target backfat): 173 days
  Rate (k, rate of backfat; fitted nonlinear parameter): 0.0075^bc
[2]; CC Genotype
  ADG, lbs/d (Average daily live bodyweight gain in pounds): 3.51 lbs/d
  BWCH, lbs: Body weight change before and after drug, difference between 3rd and 4th measure: 72.1 lbs
  BWCH, lbs: Body weight change, difference between 1st and 4th measure: 500.5 lbs
  BW, lbs d 1: 893.4 lbs
  BW, lbs d 2: 1181.1 lbs
  BW, lbs d 3: 1325.0 lbs
  BW, lbs d 4: 1394.8 lbs
[2]; CT Genotype
  ADG, lbs/d (Average daily live bodyweight gain in pounds): 3.64 lbs/d
  BWCH, lbs: Body weight change before and after drug, difference between 3rd and 4th measure: 93.8 lbs
  BWCH, lbs: Body weight change, difference between 1st and 4th measure: 518.9 lbs
  BW, lbs d 1: 890.3 lbs
  BW, lbs d 2: 1197.3 lbs
  BW, lbs d 3: 1317.1 lbs
  BW, lbs d 4: 1407.6 lbs
[2]; TT Genotype
  ADG, lbs/d (Average daily live bodyweight gain in pounds): 3.60 lbs/d
  BWCH, lbs: Body weight change before and after drug, difference between 3rd and 4th measure: 75.8 lbs
  BWCH, lbs: Body weight change, difference between 1st and 4th measure: 512.4 lbs
  BW, lbs d 1: 890.6 lbs
  BW, lbs d 2: 1191.9 lbs
  BW, lbs d 3: 1330.0 lbs
  BW, lbs d 4: 1399.0 lbs

## leptin: 16-kDa adipocyte-specific polypeptide encoded by the ob (obese) gene
[3]
  body mass: dramatically reduces
  feed intake: dramatically reduces
